Laboratory results from the CheMixHub viscosity set.
Where “and” joins values, the source holds several entries; their conditions need not be identical. Equal entries are not always repeated.

Assay: xn = mol fraction of the nth substance listed

C1CCCCC1 + Cc1ccccc1
viscosity [mPa·s]
Settings	101 kPa	101.33 kPa
293.95 K, x1 = 0.1	–	0.6126
294.15 K, x1 = 0.5	–	0.6762
294.25 K, x1 = 0.2	–	0.6123
294.45 K, x1 = 0.3	–	0.6228
294.75 K, x1 = 0.4	–	0.6357
294.75 K, x1 = 0.6	–	0.6922
296.15 K, x1 = 0.8	–	0.778
303 K, x2 = 0.04	0.7881	–
303 K, x2 = 0.081	0.7486	–
303 K, x2 = 0.162	0.6926	–
303 K, x2 = 0.324	0.6161	–
303 K, x2 = 0.484	0.5705	–
303 K, x2 = 0.644	0.5419	–
303 K, x2 = 0.803	0.5252	–
303 K, x2 = 0.882	0.5268	–
303 K, x2 = 0.96	0.5298	–
303.15 K, x1 = 0.0958	0.5395	–
303.15 K, x1 = 0.0999	0.5263	–
303.15 K, x1 = 0.2	0.5319	0.5546
303.15 K, x1 = 0.2959	0.5409	–
303.15 K, x1 = 0.4126	0.5566	–
303.15 K, x1 = 0.4964	0.5726	–
303.15 K, x1 = 0.6005	0.6005	–
303.15 K, x1 = 0.7032	0.6367	–
303.15 K, x1 = 0.7978	0.6827	–
303.15 K, x1 = 0.8946	0.7448	–
303.15 K, x2 = 0.0999	0.7364	–
303.15 K, x2 = 0.2003	0.6714	–
303.15 K, x2 = 0.3	0.6226	–
303.15 K, x2 = 0.3999	0.5886	–
303.15 K, x2 = 0.5	0.5635	–
303.15 K, x2 = 0.6	0.5481	–
303.15 K, x2 = 0.6999	0.5352	–
303.15 K, x2 = 0.7998	0.5283	–
303.15 K, x2 = 0.9	0.5256	–
303.45 K, x1 = 0.1	–	0.5477
303.45 K, x1 = 0.3	–	0.5618
303.45 K, x1 = 0.8	–	0.7003
303.75 K, x1 = 0.5	–	0.5991
303.95 K, x1 = 0.4	–	0.5688
304.25 K, x1 = 0.6	–	0.6143
308.15 K, x2 = 0.0999	0.6829	–
308.15 K, x2 = 0.2003	0.6256	–
308.15 K, x2 = 0.3	0.5822	–
308.15 K, x2 = 0.3999	0.5527	–
308.15 K, x2 = 0.5	0.5308	–
308.15 K, x2 = 0.6	0.5152	–
308.15 K, x2 = 0.6999	0.5054	–
308.15 K, x2 = 0.7998	0.4991	–
308.15 K, x2 = 0.9	0.497	–
312.45 K, x1 = 0.1	–	0.4994
312.45 K, x1 = 0.3	–	0.51
312.95 K, x1 = 0.8	–	0.6059
313.15 K, x1 = 0.2	–	0.4976
313.15 K, x1 = 0.4	–	0.5137
313.15 K, x1 = 0.4974	0.5095	–
313.15 K, x2 = 0.0999	0.6359	–
313.15 K, x2 = 0.2003	0.585	–
313.15 K, x2 = 0.3	0.5466	–
313.15 K, x2 = 0.3999	0.5206	–
313.15 K, x2 = 0.5	0.4996	–
313.15 K, x2 = 0.7998	0.4731	–
313.15 K, x2 = 0.9	0.4707	–
313.45 K, x1 = 0.5	–	0.5412
313.65 K, x1 = 0.6	–	0.5482
318.15 K, x2 = 0.0999	0.5914	–
318.15 K, x2 = 0.2003	0.548	–
318.15 K, x2 = 0.3	0.5136	–
318.15 K, x2 = 0.3999	0.4913	–
318.15 K, x2 = 0.5	0.4722	–
318.15 K, x2 = 0.6	0.4614	–
318.15 K, x2 = 0.6999	0.4531	–
318.15 K, x2 = 0.7998	0.449	–
318.15 K, x2 = 0.9	0.447	–
322.75 K, x1 = 0.8	–	0.5481
323.15 K, x1 = 0.5989	0.4735	–
323.15 K, x2 = 0.0999	0.5534	–
323.15 K, x2 = 0.2003	0.5139	–
323.15 K, x2 = 0.3	0.4839	–
323.15 K, x2 = 0.3999	0.4632	–
323.15 K, x2 = 0.5	0.4466	–
323.15 K, x2 = 0.6	0.4383	–
323.15 K, x2 = 0.6999	0.4304	–
323.15 K, x2 = 0.7998	0.4264	–
323.15 K, x2 = 0.9	0.4243	–

COCCOC + Cc1ccccc1
298.15 K, 101 kPa
Settings	viscosity [mPa·s]
x1 = 0.102	0.535
x1 = 0.2036	0.509
x1 = 0.3047	0.486
x1 = 0.4053	0.462
x1 = 0.5055	0.444
x1 = 0.6053	0.434
x1 = 0.7046	0.429
x1 = 0.8035	0.425
x1 = 0.902	0.419

N[C@@H](Cc1ccccc1)C(=O)O + O
viscosity
Settings	298.15 K	303.15 K	308.15 K	313.15 K
100 kPa, x1 = 0.0004	0.8956 mPa·s	0.8037 mPa·s	0.7264 mPa·s	–
100 kPa, x1 = 0.0007	0.8984 mPa·s	0.8062 mPa·s	0.7289 mPa·s	0.6638 mPa·s
100 kPa, x1 = 0.001	0.901 mPa·s	0.8088 mPa·s and 0.8113 mPa·s	0.7315 mPa·s and 0.7343 mPa·s	0.6689 mPa·s and 0.6664 mPa·s
100 kPa, x1 = 0.0018	0.9067 mPa·s	0.8139 mPa·s	–	0.6713 mPa·s
100 kPa, x1 = 0.0022	0.9093 mPa·s	0.8169 mPa·s	0.7395 mPa·s	0.6738 mPa·s
101 kPa, x1 = 0.00018	0.912 mPa·s	0.803 mPa·s	0.731 mPa·s	0.658 mPa·s
101 kPa, x1 = 0.000362	0.919 mPa·s	0.809 mPa·s	0.734 mPa·s	–
101 kPa, x1 = 0.000725	0.927 mPa·s	0.822 mPa·s	0.745 mPa·s	0.671 mPa·s
101 kPa, x1 = 0.000909	0.931 mPa·s	0.825 mPa·s	0.749 mPa·s	0.674 mPa·s
101 kPa, x1 = 0.00109	0.949 mPa·s	0.841 mPa·s	–	0.688 mPa·s
101 kPa, x1 = 0.00146	0.959 mPa·s	0.849 mPa·s	0.767 mPa·s	0.692 mPa·s

COC(C)=O + CO
298.15 K, 101.33 kPa
Settings	viscosity [mPa·s]
x1 = 0.0996	0.498
x1 = 0.2029	0.462
x1 = 0.3433	0.421
x1 = 0.4025	0.41
x1 = 0.4912	0.397
x1 = 0.6272	0.386
x1 = 0.7892	0.38
x1 = 0.8704	0.381
